Results published in patent US20140154182A1 (priority 2011, published 2014).

Key:
[1] = molecular target: NMDAR ion channel; experiment: Competition binding assay against [3H]MK-801 in rat forebrain membranes; details: against 5 nM [3H]MK-801; mean±SEM of 2-6 independent determinations, each in triplicate
Procedure: Male Wistar rats (150-200 g) were killed by decapitation. The forebrains were rapidly removed and homogenized using a DUALL tissue homogenizer (10 strokes, 2000 rpm), in a 7-fold excess (v/w) of ice-cold 0.25 M sucrose. The nuclei and cell debris were removed by centrifugation (10 min x 400×g) in a Sorvall RC-6 refrigerated centrifuge (rotor SA600). The supernatant was decanted and the resulting pellet was rehomogenized in 5 vol 0.25 M sucrose and recentrifuged. The combined supernatants were diluted in Tris-acetate buffer (50 mM, pH 7.4) to a final dilution of 40 v/w, and centrifuged for 30 min×30,000×g, in order to obtain membranes from the cell surface, mitochondrial, and microsomal fractions. The pellet was resuspended in 20 vol of 50 mM Tris buffer containing 0.04% Triton X-100 (pH 7.4), and was kept at 25° C. for 2 hr before recentrifugation. The resulting pellet was suspended in Tris-HCl buffer (dilution 4, pH 7.4) and stored at −80° C. in 5 ml aliquots. On the day of each experiment, membranes were thawed to room temperature and washed twice by centrifugation (30 min×200,000×g). After the final centrifugation step, pellets were suspended in 50 mM Tris-HCl buffer (pH 7.4) and further diluted to 40 vol of buffer per g original weight wet tissue for competition binding experiments.
Protein concentration was determined using the BCA protein kit (Sigma-Aldrich, The Netherlands).
In vitro competition binding experiments were performed using 5 nM [^3H]MK-801 (specific activity 22.5 Ci/mmol; PerkinElmer, USA). All compounds as prepared in the Examples and listed in Table 2 were dissolved as 10 mM stock solutions in DMSO, and used in a concentration range from 10^−4 to 10^−12 M, with a maximal DMSO concentration of 1%. Competition binding experiments were conducted at room temperature, in a final volume of 500 μl assay buffer (50 mM Tris-HCl, pH 7.4), containing 1 μM L-glutamate and glycine. The incubation mixture was composed of 400 μl membrane suspension (protein concentration 1 μg/μL), 50 μL [^3H]MK-801, 45 μl assay buffer and 5 μl unlabeled drug solution. Nonspecific binding was determined in the presence of 30 μM GMOM. Incubations were terminated overnight by filtration, using a 48-well Brandel harvester and Whatman GF/B filters, presoaked in 0.3% polyethyleneimine. The filters were washed three times with 3 ml of ice-cold Tris-HCl buffer (pH 7.4), and radioactivity was subsequently determined by liquid scintillation spectrometry in 5 mL of Optiphase-HiSafe 3, at an efficiency of 40%.
Ki values were determined by nonlinear regression analysis using the equation: log EC50=log [10̂log Ki*(1+RadioligandNM/HotKdNM)], (GraphPad Software Inc., San Diego, Calif.).
In this table the Ki for the different compounds is stated. The Ki as measured against 5 nM [^3H]MK-801 and represent the mean±SEM Ki values of 2-6 independent determinations, each conducted in triplicate, The indexes (b), (c) and (d) describe the form in which the compound was tested: (b) fumaric acid salt, (c) free base, (d) hydrochloric acid salt.

[2] = type: in vivo, B6C3 mice; details: for organ with the highest uptake: 5 min following tracer injection, blood, heart, lungs, liver, kidney; for DAR (differential absorption ratio), cerebellum / DAR (differential absorption ratio), cerebral cortex / DAR (differential absorption ratio), hippocampus / DAR (differential absorption ratio), prefrontal cortex / DAR (differential absorption ratio), striatum: 5 min post-injection, i.v.; for DAR (differential absorption ratio), cerebellum / DAR (differential absorption ratio), cerebral cortex / DAR (differential absorption ratio), hippocampus / DAR (differential absorption ratio), prefrontal cortex / DAR (differential absorption ratio), striatum / time of highest ratio of radioactivity uptake between forebrain regions and the cerebellum: mice; for clearance of radioactivity from the brain: mouse, in vivo; for time of highest ratio of radioactivity uptake between forebrain regions and the cerebellum: post-injection
Procedure: Male, 7-9 weeks old, B6C3 mice were used in all experiments. Animals were anaesthetized with an i.p. injection of Hypnorm/dormicum (12 ml/kg), after which [^18F]PK209 (as prepared in Example 26) (19.0±1.1 MBq at t0) or [^11C]PK083 (as prepared in Example 22) (24.4±3.5 MBq at t0) was administered via the tail vein, in a saline solution containing 10% ethanol (5 ml/kg). Following the injections, mice were killed by cervical dislocation at 5, 10, 30, or 60 min (n=4−6). At each time point, blood was obtained by heart punctures and selected organs, including the heart, liver, kidneys, lungs and brain were removed. The brain was further dissected into prefrontal cortex, striatum, cerebral cortex, hippocampus and cerebellum. All organs and brain areas were weighed, and recovered radioactivity was determined with a Compugamma (LKB Wallac), using 5×10 μl aliquots of the injected formulation as standard. Results are expressed as the differential absorption ratio (DAR): (cpm recovered/g tissue)/(cpm injected/g body weight). Two-way repeated measures ANOVA, followed by LSD post-hoc analysis was used for between-region (or organ) comparisons of radiotracer uptake at different time points.

[3] = physchem; type: physicochemical; details: 1-octanol / 0.2M phosphate buffer pH 7.4, room temperature, triplicate; read-out: LogDoct,7.4
Procedure: The distribution of the radio labeled compounds between 1-octanol and 0.2M phosphate buffer (pH=7.4) was measured in triplicate at room temperature. Briefly, 1 mL of a 20 MBq/mL solution of the radio labeled compound in 0.2M phosphate buffer (pH=7.4) was vigorously mixed with 1 mL of 1-octanol for 1 min at room temperature using a vortex. After a settling period of 30 min, five samples of 100 μL were taken from both layers. For determining recovery, 5 samples of 100 μL were taken from the 20 MBq/mL solution. All samples were counted for radioactivity. The LogDoct,7.4 value was calculated according to LogDoct,7.4=^10Log(Aoct/Abuffer), where Aoct and Abuffer represent the average radioactivity counted of the 5 1-octanol and 5 buffer samples, respectively.

[4] = system: NMDA receptors; experiment: Ex vivo autoradiography and MK-801 blocking study; type: in vivo, mice
Procedure: To visualize the distribution and specificity of [^18F]PK209 or [^11C]PK083 for NMDA receptors, anaesthetized mice were injected with either saline or MK-801 (0.6 mg/kg, i.p.), 10 min before a tail-vein injection of each of the radiolabeled compounds (n=2). 5 min following injection of [^11C]PK083 or 15 min after [^18F]PK209 injection, mice were killed by cervical dislocation, and their brains were removed, frozen in liquid nitrogen and processed for quantitative autoradiography. Briefly, 20 μm coronal brain sections were cut at 300 μm intervals, from rostral to caudal areas. Sections from each mouse were opposed to Kodak Biomax MR-1 film, either immediately or following 2×30 sec washes in ice-cold Tris-HCl buffer (pH 7.4) and a dip in ice-cold demi water. Films were developed after 24 hr, and relevant optical density (ROD) values were obtained using the MCID software. Sections from control and MK-801 treated mice were processed in parallel. All brain regions were identified by reference to the mouse atlas of Franklin and Paxinos (2001).
Reference is made to FIG. 3. […] FIG. 3A the [^18F]209 specific binding (relevant optical density) is shown for (from left to right) frontal cortex, striatum, hippocampus, cerebral cortex and cerebellum. In FIG. 3B representative images are shown for (from bottom to top) cerebellum, hippocampus, striatum, cerebral cortex and frontal cortex.
Specific binding was defined as that […] pretreatment with MK-801 (0.6 mg/kg i.p.). […] Specific [^18F]PK-209 binding constituted 10% and 8% of total binding values in the hippocampus and the cerebral cortex, respectively.

[5] = quantitative autoradiography, relevant optical density

Structure (SMILES): CSc1ccc(Cl)c(NC(=N)N(C)c2cccc(OC(F)F)c2)c1 [compound 18, 3-(2-chloro-5-(methylthio)phenyl)-1-(3-(difluoromethoxy)phenyl)-1-methylguanidine]
- Ki [1]: 10 ± 2 nM

Structure (SMILES): COc1cccc(N(C)C(=N)Nc2cc(SC)ccc2Cl)c1 [compound 14, reference compound]
- Ki [1]: 21.7 ± 2.2 nM

Structure (SMILES): CSc1ccc(Cl)c(NC(=N)N(C)c2cccc(OC(F)(F)C(F)F)c2)c1 [compound 20, 3-(2-chloro-5-(methylthio)phenyl)-1-methyl-1-(3-(1,1,2,2-tetrafluoroethoxy)phenyl)guanidine]
- Ki [1]: 56.7 ± 6.2 nM

Structure (SMILES): CSc1ccc(Cl)c(NC(=N)N([11CH3])c2cccc(OC(F)F)c2)c1 [[^11C]PK083, 1-(2-chloro-5-(methylthio)phenyl)-3-^11C-methyl-3-(3-(difluoromethoxy)phenyl)guanidine]
- organ with the highest uptake [2]: lungs
- DAR (differential absorption ratio), cerebellum [2]: 0.55±0.07
- DAR (differential absorption ratio), cerebral cortex [2]: 0.83±0.11
- DAR (differential absorption ratio), hippocampus [2]: 1.41±0.46
- DAR (differential absorption ratio), prefrontal cortex [2]: 0.96±0.16
- DAR (differential absorption ratio), striatum [2]: 0.86±0.13
- clearance of radioactivity from the brain [2]: rapidly cleared
- time of highest ratio of radioactivity uptake between forebrain regions and the cerebellum [2]: 5 min
- logD [3]: 1.76 ± 0.01

Structure (SMILES): CSc1ccc(Cl)c(NC(=N)Nc2cccc(OC(F)F)c2)c1 [compound 7, 1-(2-chloro-5-(methylthio)phenyl)-3-(3-(difluoromethoxy)phenyl)guanidine]
- Ki [1]: 147 ± 15 nM

Structure (SMILES): CSc1ccc(Cl)c(NC(=N)Nc2cccc(OC(F)(F)F)c2)c1 [compound 8, 1-(2-chloro-5-(methylthio)phenyl)-3-(3-(trifluoromethoxy)phenyl)guanidine]
- Ki [1]: 235 ± 55.5 nM

Structure (SMILES): CSc1ccc(Cl)c(NC(=N)N(C)c2cccc(OC(F)(F)F)c2)c1 [compound 19, 3-(2-chloro-5-(methylthio)phenyl)-1-methyl-1-(3-(trifluoromethoxy)phenyl)guanidine]
- Ki [1]: 12 ± 2 nM

Structure (SMILES): CSc1ccc(Cl)c(NC(=N)N(C)c2cccc(OC[18F])c2)c1 [[^18F]PK209]
- organ with the highest uptake [2]: lungs
- DAR (differential absorption ratio), cerebellum [2]: 0.84±0.09
- DAR (differential absorption ratio), cerebral cortex [2]: 1.17±0.07
- DAR (differential absorption ratio), hippocampus [2]: 1.05±0.09
- DAR (differential absorption ratio), prefrontal cortex [2]: 1.19±0.10
- DAR (differential absorption ratio), striatum [2]: 1.19±0.15
- clearance of radioactivity from the brain [2]: cleared rapidly
- time of highest ratio of radioactivity uptake between forebrain regions and the cerebellum [2]: 15 min
- specific binding as share of total binding, cerebral cortex ([4]; 15 min after injection, MK-801 0.6 mg/kg i.p. pretreatment): 8%
- binding level, cerebellum [4, 5]: moderate
- binding level, cerebral cortex [4, 5]: high
- binding level, frontal cortex [4, 5]: low
- binding level, hippocampus [4, 5]: high
- binding level, striatum [4, 5]: low
- logD [3]: 1.45 ± 0.02

Structure (SMILES): CSc1ccc(Cl)c(NC(=N)N(C)c2cccc(O)c2)c1 [compound 17, 3-(2-chloro-5-(methylthio)phenyl)-1-(3-hydroxyphenyl)-1-methylguanidine]
- Ki [1]: 551 ± 57.8 nM

Structure (SMILES): CSc1ccc(Cl)c(NC(=N)N(C)c2cccc(OCCCF)c2)c1 [compound 23, 3-(2-chloro-5-(methylthio)phenyl)-1-(3-(3-fluoropropoxy)phenyl)-1-methylguanidine]
- Ki [1]: 179 ± 39 nM
